Molecular target: T1, RORc ligand binding domain (Homo sapiens, UniProt P51449)
T1 sequence (P51449 269-508 limits assumed): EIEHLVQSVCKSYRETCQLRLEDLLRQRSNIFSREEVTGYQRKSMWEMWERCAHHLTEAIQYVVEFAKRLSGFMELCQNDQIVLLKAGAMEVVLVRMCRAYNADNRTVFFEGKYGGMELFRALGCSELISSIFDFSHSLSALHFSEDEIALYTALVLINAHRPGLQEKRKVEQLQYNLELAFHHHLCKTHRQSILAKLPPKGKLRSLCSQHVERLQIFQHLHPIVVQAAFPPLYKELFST
Assay: In Vitro RORc Ligand Binding Assay
Details: RORc IC50, radioligand 25-[3H]hydroxycholesterol 6 nM; 0.6 ug/mL RORc receptor; 3 h at 25° C.

Row | Structure (SMILES) | IC50 [nM]
1 | CC(C)(O)c1cnc(-c2cncc([C@@]34CC[C@@H](c5cc(-c6c(F)cccc6F)nnc53)C4(C)C)n2)o1 [Example 342, 2-(2-(6-((5R,8S)-3-(2,6-difluorophenyl)-9,9-dimethyl-5,6,7,8-tetrahydro-5,8-methanocinnolin-8-yl)pyrazin-2-yl)oxazol-5-yl)propan-2-ol] | 11.7
2 | C=C(C)c1cnc(-c2cncc([C@@]34CC[C@@H](c5cc(-c6c(F)cccc6F)nnc53)C4(C)C)n2)o1 [Example 343, 2-(6-((5R,8S)-3-(2,6-difluorophenyl)-9,9-dimethyl-5,6,7,8-tetrahydro-5,8-methanocinnolin-8-yl)pyrazin-2-yl)-5-(prop-1-en-2-yl)oxazole] | 1.6
3 | CC(C)(C)OC(=O)N1CC=C(c2nccc([C@@]34CC[C@@H](c5cc(-c6c(F)cccc6F)nnc53)C4(C)C)n2)CC1 [Example 344] | 1.7
4 | CC(C)(C)OC(=O)N1CCC(c2nccc([C@@]34CC[C@@H](c5cc(-c6c(F)cccc6F)nnc53)C4(C)C)n2)CC1 [Example 345] | 13
5 | CC(C)OC(=O)c1coc(-c2cncc([C@@]34CC[C@@H](c5cc(-c6c(F)cccc6F)nnc53)C4(C)C)n2)n1 [Example 346, isopropyl 2-(6-((5R,8S)-3-(2,6-difluorophenyl)-9,9-dimethyl-5,6,7,8-tetrahydro-5,8-methanocinnolin-8-yl)pyrazin-2-yl)oxazole-4-carboxylate] | 3.7
6 | CC(C)(O)c1ncc(-c2cncc([C@@]34CC[C@@H](c5cc(-c6c(F)cccc6F)nnc53)C4(C)C)n2)o1 [Example 347, 2-(5-(6-((5R,8S)-3-(2,6-difluorophenyl)-9,9-dimethyl-5,6,7,8-tetrahydro-5,8-methanocinnolin-8-yl)pyrazin-2-yl)oxazol-2-yl)propan-2-ol] | 6.8
7 | C[C@@H](O)c1ccn(-c2nccc([C@@]34CC[C@@H](c5cc(-c6c(F)cccc6F)nnc53)C4(C)C)n2)n1 [Example 348] | 10.6
8 | CC1(C)[C@H]2CC[C@]1(c1ccnc(C3CCN(S(C)(=O)=O)CC3)n1)c1nnc(-c3c(F)cccc3F)cc12 [Example 349] | 6.3
9 | CC(=O)N1CCC(c2nccc([C@@]34CC[C@@H](c5cc(-c6c(F)cccc6F)nnc53)C4(C)C)n2)CC1 [Example 351] | 10.5
10 | CC1(C)[C@H]2CC[C@]1(c1ccnc(C3CCOCC3)n1)c1nnc(-c3c(F)cccc3F)cc12 [Example 356] | 2.4
11 | CC(C)(C#N)c1n[nH]c(-c2cccc([C@@]34CC[C@@H](c5cc(-c6c(F)cccc6F)nnc53)C4(C)C)n2)n1 [Example 357, 2-(5-(6-((5R,8S)-3-(2,6-difluorophenyl)-9,9-dimethyl-5,6,7,8-tetrahydro-5,8-methanocinnolin-8-yl)pyridin-2-yl)-1H-1,2,4-triazol-3-yl)-2-methylpropanenitrile] | 13
12 | CC(C)(C)OC(=O)N1CCC[C@@H](c2nccc([C@@]34CC[C@@H](c5cc(-c6c(F)cccc6F)nnc53)C4(C)C)n2)C1 [Example 361] | 20.1
13 | CC(C)(C)OC(=O)N1CCCC(c2nccc([C@@]34CC[C@@H](c5cc(-c6c(F)cccc6F)nnc53)C4(C)C)n2)C1 (stereo partly shown) [Example 362] | 15.8
14 | CC1(C)[C@H]2CC[C@]1(c1ccnc(C3CCCN(C(=O)CO)C3)n1)c1nnc(-c3c(F)cccc3F)cc12 (stereo partly shown) [Example 364] | 50.4
15 | CC1(C)[C@H]2CC[C@]1(c1cncc(-c3nc([C@H](O)C(F)(F)F)co3)n1)c1nnc(-c3c(F)cccc3F)cc12 [Example 366, (S)-1-(2-(6-((5R,8S)-3-(2,6-difluorophenyl)-9,9-dimethyl-5,6,7,8-tetrahydro-5,8-methanocinnolin-8-yl)pyrazin-2-yl)oxazol-4-yl)-2,2,2-trifluoroethanol] | 3.5
16 | Cc1ccn(-c2nccc([C@@]34CC[C@@H](c5cc(-c6c(F)cccc6F)nnc53)C4(C)C)n2)n1 [Example 367] | 3.1
17 | CC(C)(O)c1ccc(-c2nccc([C@@]34CC[C@@H](c5cc(-c6c(F)cccc6F)nnc53)C4(C)C)n2)cn1 [Example 370] | 4.4
18 | CC(C)(O)c1cc(-c2nccc([C@@]34CC[C@@H](c5cc(-c6c(F)cccc6F)nnc53)C4(C)C)n2)ccn1 [Example 372] | 2.6
19 | CC1(C)[C@H]2CC[C@]1(c1ccnc(-c3ccc(C(N)=O)nc3)n1)c1nnc(-c3c(F)cccc3F)cc12 [Example 373] | 4
20 | CC1(C)[C@H]2CC[C@]1(c1ccnc(-c3ccc(CO)nc3)n1)c1nnc(-c3c(F)cccc3F)cc12 [Example 374] | 5.5
21 | Cc1ncn(-c2cncc([C@]34CC[C@H](c5cc(-c6c(F)cccc6F)nnc53)C4(C)C)n2)n1 [Example 375] | 10.4
22 | CC1(C)[C@H]2CC[C@]1(c1cncc(C(=O)N[C@@H]3COC(=O)C3)n1)c1nnc(-c3c(F)cccc3F)cc12 [Example 376, 6-((5R,8S)-3-(2,6-difluorophenyl)-9,9-dimethyl-5,6,7,8-tetrahydro-5,8-methanocinnolin-8-yl)-N-((S)-5-oxotetrahydrofuran-3-yl)pyrazine-2-carboxamide] | 27.2
23 | C[C@H](O)c1coc(-c2cncc([C@@]34CC[C@@H](c5cc(-c6c(F)cccc6F)nnc53)C4(C)C)n2)n1 [Example 378, (S)-1-(2-(6-((5R,8S)-3-(2,6-difluorophenyl)-9,9-dimethyl-5,6,7,8-tetrahydro-5,8-methanocinnolin-8-yl)pyrazin-2-yl)oxazol-4-yl)ethanol] | 6.8
24 | C[C@@H](O)c1coc(-c2cncc([C@@]34CC[C@@H](c5cc(-c6c(F)cccc6F)nnc53)C4(C)C)n2)n1 [Example 379, (R)-1-(2-(6-((5R,8S)-3-(2,6-difluorophenyl)-9,9-dimethyl-5,6,7,8-tetrahydro-5,8-methanocinnolin-8-yl)pyrazin-2-yl)oxazol-4-yl)ethanol] | 7.4
25 | CC1(C)[C@H]2CC[C@]1(c1cncc(-c3nc(CC#N)co3)n1)c1nnc(-c3c(F)cccc3F)cc12 [Example 380, 2-(2-(6-((5R,8S)-3-(2,6-difluorophenyl)-9,9-dimethyl-5,6,7,8-tetrahydro-5,8-methanocinnolin-8-yl)pyrazin-2-yl)oxazol-4-yl)acetonitrile] | 6.1
26 | CC1(C)[C@@H]2CC[C@@]1(c1cncc(-n3ccc(CO)n3)n1)c1nnc(-c3c(F)cccc3F)cc12 [Example 381, (1-(6-((5S,8R)-3-(2,6-difluorophenyl)-9,9-dimethyl-5,6,7,8-tetrahydro-5,8-methanocinnolin-8-yl)pyrazin-2-yl)-1H-pyrazol-3-yl)methanol] | 6
27 | CC[C@@H](O)c1coc(-c2cncc([C@@]34CC[C@@H](c5cc(-c6c(F)cccc6F)nnc53)C4(C)C)n2)n1 [Example 382, (R)-1-(2-(6-((5R,8S)-3-(2,6-difluorophenyl)-9,9-dimethyl-5,6,7,8-tetrahydro-5,8-methanocinnolin-8-yl)pyrazin-2-yl)oxazol-4-yl)propan-1-ol] | 7.3

Other lines, results leading:

Row | IC50 [nM] | Structure (SMILES)
28 | 16.4 | CC(C)(O)c1coc(-c2nccc([C@@]34CC[C@@H](c5cc(-c6c(F)cccc6F)nnc53)C4(C)C)n2)n1 [Example 350]
29 | 15.2 | Cc1nc(C)n(-c2nccc([C@@]34CC[C@@H](c5cc(-c6c(F)cccc6F)nnc53)C4(C)C)n2)n1 [Example 352]
30 | 10.8 | C[C@H](O)c1ccn(-c2nccc([C@@]34CC[C@@H](c5cc(-c6c(F)cccc6F)nnc53)C4(C)C)n2)n1 [Example 353]
31 | 20.7 | CC(C)(O)Cc1n[nH]c(-c2cncc([C@@]34CC[C@@H](c5cc(-c6c(F)cccc6F)nnc53)C4(C)C)n2)n1 [Example 354, 1-(5-(6-((5R,8S)-3-(2,6-difluorophenyl)-9,9-dimethyl-5,6,7,8-tetrahydro-5,8-methanocinnolin-8-yl)pyrazin-2-yl)-1H-1,2,4-triazol-3-yl)-2-methylpropan-2-ol]
32 | 12.4 | CC1(C)[C@H]2CC[C@]1(c1ccnc(C3CCN(C(=O)CO)CC3)n1)c1nnc(-c3c(F)cccc3F)cc12 [Example 355]
33 | 60.4 | Cc1nc(CO)nn1-c1nccc([C@@]23CC[C@@H](c4cc(-c5c(F)cccc5F)nnc42)C3(C)C)n1 [Example 358]
34 | 17.3 | CC1(C)[C@H]2CC[C@]1(c1ccnc(-n3cnc(=O)[nH]3)n1)c1nnc(-c3c(F)cccc3F)cc12 [Example 359]
35 | 127 | Cc1nc(=O)[nH]n1-c1nccc([C@@]23CC[C@@H](c4cc(-c5c(F)cccc5F)nnc42)C3(C)C)n1 [Example 360]
36 | 33.5 | Cc1ncnn1-c1ncc(F)c([C@@]23CC[C@@H](c4cc(-c5c(F)cccc5F)nnc42)C3(C)C)n1 [Example 363]
37 | 5.4 | CC1(C)[C@H]2CC[C@]1(c1ccnc(-n3cnc(CO)n3)n1)c1nnc(-c3c(F)cccc3F)cc12 [Example 368]
38 | 3.6 | CC1(C)[C@H]2CC[C@]1(c1cncc(-c3nc(CS(C)(=O)=O)co3)n1)c1nnc(-c3c(F)cccc3F)cc12 [Example 369, 2-(6-((5R,8S)-3-(2,6-difluorophenyl)-9,9-dimethyl-5,6,7,8-tetrahydro-5,8-methanocinnolin-8-yl)pyrazin-2-yl)-4-((methylsulfonyl)methyl)oxazole]
39 | 3.3 | CC(C)(O)c1coc(-c2cncc([C@@]34CC[C@@H](c5cc(-c6c(F)cccc6Cl)nnc53)C4(C)C)n2)n1 [Example 371, 2-(2-(6-((5R,8S)-3-(2-chloro-6-fluorophenyl)-9,9-dimethyl-5,6,7,8-tetrahydro-5,8-methanocinnolin-8-yl)pyrazin-2-yl)oxazol-4-yl)propan-2-ol]
40 | 5.3 | CCC(O)(CC)c1coc(-c2cncc([C@@]34CC[C@@H](c5cc(-c6c(F)cccc6F)nnc53)C4(C)C)n2)n1 [Example 377, 3-(2-(6-((5R,8S)-3-(2,6-difluorophenyl)-9,9-dimethyl-5,6,7,8-tetrahydro-5,8-methanocinnolin-8-yl)pyrazin-2-yl)oxazol-4-yl)pentan-3-ol]
